In patent EP3426634B1, “DISUBTITUTED AZETIDINES, PYRROLIDINES, PIPERIDINES AND AZEPANES AS INHIBITORS OF MONOAMINE OXIDASE B FOR THE TREATMENT OF NEURODEGENERATIVE DISEASES” (University of Ljubljana, priority 2016, dated 2018):

molecular target: T1, hMAO-B (Homo sapiens, UniProt P27338); experiment: Inhibition assay using human recombinant MAO-B (fluorimetric Amplex Red assay); type: biochemical; conditions: 1 mM p-tyramine, 15 min pre-incubation at 37 °C, pH 7.4, Amplex Red/horseradish peroxidase, read-out: hMAO-B IC50 [nM] ±SEM
T1 construct: purchased Sigma Aldrich M7441; host or cells: baculovirus infected insect cells (BTI-TN-5B1-4)
T1 sequence (P27338 1-520): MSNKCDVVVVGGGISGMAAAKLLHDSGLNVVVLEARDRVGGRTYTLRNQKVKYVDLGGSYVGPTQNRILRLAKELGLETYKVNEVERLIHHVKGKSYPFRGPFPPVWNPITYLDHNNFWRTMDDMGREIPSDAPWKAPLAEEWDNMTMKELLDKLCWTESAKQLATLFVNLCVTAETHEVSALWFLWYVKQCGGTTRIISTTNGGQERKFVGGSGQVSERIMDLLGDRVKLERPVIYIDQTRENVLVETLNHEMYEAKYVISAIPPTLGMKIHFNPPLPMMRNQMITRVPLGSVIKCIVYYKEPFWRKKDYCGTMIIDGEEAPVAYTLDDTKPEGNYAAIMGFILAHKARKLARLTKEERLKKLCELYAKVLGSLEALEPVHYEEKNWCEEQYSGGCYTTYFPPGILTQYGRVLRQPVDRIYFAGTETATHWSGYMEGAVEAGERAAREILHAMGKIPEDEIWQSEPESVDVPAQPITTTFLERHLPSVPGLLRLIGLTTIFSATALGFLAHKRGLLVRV
Description: The inhibitory activity of the compounds was evaluated by their effects on the production of hydrogen peroxide (H2O2) from p-tyramine, a nonspecific substrate for both hMAO isoforms. The production of the H2O2 was detected using Amplex Red reagent in the presence of horseradish peroxidase, where a highly sensitive fluorescent product, resorufin, is produced at stoichiometric amounts. Recombinant human microsomal hMAO enzymes expressed in baculovirus infected insect cells (BTI-TN-5B1-4), horse-radish peroxidase (type II, lyophilized powder), and p-tyramine hydrochloride were purchased from Sigma Aldrich.
The production of resorufin was quantified on the basis of the fluorescence generated (λex= 530 nm, λem = 590 nm) at 37 °C over a period of 20 min, during which time the fluorescence increase linearly. For control experiments, DMSO was used instead of the appropriate dilutions of the compounds in DMSO. To determine the blank value (b), phosphate-buffered solution replaced the enzyme solution. The initial velocities were calculated from the trends obtained, with each measurement carried out in duplicate. The inhibitory potencies are expressed as the residual activities (RA = (vi-b) / (vo-b), where vi is the velocity in the presence of the test compounds, and v0 the control velocity in the presence of DMSO. The IC50 values were obtained by plotting residual enzyme activities against applied inhibitor concentration, with the experimental data fitted to a Hill four parameter equation (Equation (1)) using in-house python script and Gnuplot software. Y = Min + (Max−Min)/(1+10^(∧)((LogIC50−X)×Hillcoefficient)) [formula] where X represent logarithm of inhibitor concentration, and Y the residual activity.
The capacity of the test compounds to react directly with Amplex Red was determined by adding these compounds to a solution containing all of the components except the MAO isoenzyme.

| SMILES | IC50 |
| --- | --- |
| C#CCCN1CCC(/C=C/c2ccc(F)cc2)CC1 [drawing 173] | 475 ± 28.6 nM |
| C#CCN1CCCC(Cc2ccc(F)cc2)CC1 (stereo not drawn) [drawing 183] | 59.2 ± 6 nM |
| C#CCN1CCCC(CCc2ccc(F)cc2)CC1 (stereo not drawn) | 250 ± 42.4 nM |
| C#CCCCN1CCC(/C=C/c2ccc(F)cc2)CC1 [drawing 177] | 163 ± 17 nM |
| C#CCN1CCC(/C=C/c2ccccn2)CC1 | 730 ± 85.6 nM |

More lines, now with the values ahead:

| IC50 | SMILES |
| --- | --- |
| 48800 ± 3240 nM | C#CCN1CCC(=Cc2ccc(F)cc2)CC1 |
| 17400 ± 2040 nM | C#CCN1CCC(/C=C/c2ccc(F)cc2)C1 (stereo not drawn) |
| 1700 ± 292 nM | C#CCCN1CCC(CCc2ccc(F)cc2)CC1 |
| 1440 ± 140 nM | C#CCN1CCC(CCc2ccc(Br)cc2)CC1 |

molecular target: T1, hMAO-B; experiment: Reversibility assay (100-fold dilution); type: biochemical; conditions: hMAO-B at 100-fold final concentration incubated 15 min at 37 °C with inhibitor at 10-fold the IC50, then diluted 100-fold; monitored 30 min
Description: The final concentrations of all of the reagents and MAO-B were the same as in the assay described above. The reaction was monitored for 30 min. Control experiments were carried out in the same manner, where the inhibitor solution was replaced by DMSO.

| SMILES | Activity of the enzyme after 100-fold dilution (in percentage ±SD) |
| --- | --- |
| C#CCCN1CCC(/C=C/c2ccc(F)cc2)CC1 [drawing 194] | 94.91 ±2.52 percentage |
| C#CCN1CCCC(Cc2ccc(F)cc2)CC1 (stereo not drawn) [drawing 196] | 5.55 ±0.25 percentage |
| C#CCCCN1CCC(/C=C/c2ccc(F)cc2)CC1 [drawing 195] | 74.01 ±2.76 percentage |
